{
  "source": "patent US8147837B2",
  "about": "“Use of mycobacterial mannosylated lipoglycans peptide mimotopes for treating inflammation” (priority 2004, dated 2012)",
  "key": {"[1]": {"tested_on": "THP-1 human monocyte cell line", "test": "FITC-labeled peptide binding to THP-1 (FACS)", "format": "cell-based", "experimental": "(§1) RAW 264.7 cells were grown in a 250-ml flask, washed 3 times in cold PBS, and harvested, THP-1 cells were grown to 10^6/ml in 250-ml flask, centrifuged at 3000 rpm for 10 min, then washed 3 times in cold PBS. Cells were then incubated for 15 min at 37° C., with the FITC-labeled peptide diluted 1:50, then washed 3 times in cold PBS. The fluorescence levels of 10,000 cell counts were determined by FACS (Becton Dickinson, Franklin Lakes, N.J.) and analyzed by CELLQuest™ software. Assay of competitive binding between D-mannose and the FITC-labeled B11 peptide was performed according to Nguyen and Hildreth [Nguyen, D. G., and Hildreth, J. E. Eur J Immunol 33:483-493 (2003)]."}, "[2]": {"tested_on": "macrophage cell line RAW 264.7", "test": "FITC-labeled peptide binding to RAW 264.7 (confocal microscopy, FACS)", "format": "cell-based, murine", "experimental": "B11 peptide (50 μg) was conjugated to FITC (Biotium, Hayward, Calif.) as described by Sethi et al., [Sethi, K. K., et al. Cell Motil Cytoskeleton 52:231-241 (2002)]. For confocal microscopy, RAW 264.7 cells were grown in 8-well glass slides, Chamber Slide™ (Nunc), as described above. Cells were washed three times in cold PBS and incubated with the FITC-labeled mimotope for 5 min at 4° C. in serial dilutions of 1:2-1:100 in cold PBS. Slides were imaged immediately with a Zeiss 410 confocal laser scanning microscope.\nas §1"}, "[3]": {"tested_on": "IgG antibodies in sera of Mtb-infected mice", "format": "binding, BALB/c mice"}, "allergic asthma": {"tested_on": "allergic asthma", "test": "OVA induced allergic asthma model", "format": "in vivo, mice", "experimental": "For the induction of allergic asthma, mice were sensitized with OVA (Grade V, Sigma) adsorbed to Al(OH)3 gel (Aldrich Chemical Company, Milwaukee, Wis.), using 8 mg OVA/2 ml gel/0.5 ml H2O, pH 7.0-7.5, given intraperitoneally on days 0 and 14. On days 24 and 27 mice were challenged (induction of allergic asthma) with OVA i.n. Negative control group were sensitized with saline. The sensitization and challenge protocol used is an adaptation of a reported procedure [Blyth D. et al., Am. J. Respir. Cell Mol. Biol., 14: 425-438. (1996)].\nTwenty-four hours after the second challenge mice were sacrificed. Bronchoalveolar lavage (BAL) was performed with PBS. Eosinophils in Bronchoalveolar lavage fluid (BALF) were detected as described above. Cytokine ELISA was performed to determine cytokine levels in BALF.\nMice treated with B11 peptide were treated with 200 μg/mouse 2 days before sensitizations (Group-S i.p.), 2 days before challenges i.p. (Group-C i.p.), or 1 hour before challenge i.n. (Group-C i.n.) and 2 days both before sensitization and challenge (Group-S+C i.p.).\nLung were excised and examined histologically and photographed after staining with haematoxylin and eosin.\n(§2) Cytokine levels in mouse sera, cell supernatants, peritoneum lavage, and BALF were assessed by ELISA tests using commercial pairs of antibodies and recombinant cytokines for TNFα IFN-γ, IL-10 and IL-4 (Pharmingen International, Oxford, UK), and IL-12 (Biosource International, Camarillo, Calif.) according to the manufacturer's instructions. The ranges of the sensitivities of the ELISA for the murine cytokines were 15-200 pg/ml for TNF-α, IFN-γ, IL-10, and IL-4, and 15-500 pg/ml for IL-12."}, "[4]": {"tested_on": "serum antibodies of TB patients", "test": "ELISA of human TB patients' sera on ManLAM or B11 coated plates", "format": "binding", "from_the_text": "Marchal (Pasteur Institute, Paris)."}, "allergic peritonitis": {"tested_on": "allergic peritonitis", "test": "OVA induced allergic peritonitis model", "format": "in vivo, BALB/c mice", "experimental": "For induction of allergic peritonitis, female BALB/c mice, 5-6 weeks old, were sensitized twice on days 1 and 7 by subcutaneous (s.c.) injection of 0.4 ml of a 0.9% solution of NaCl containing 100 μg ovalbumin (OVA) adsorbed on 1.6 mg Al(OH)3 (all Sigma) the mice received a second dose of the same s.c. injection. On day 11 Peritonitis was induced by the intraperitoneal (i.p.) injection of 0.4 ml of a solution containing 5 μg/ml OVA diluted in saline [Temkin V. et al., Cytokine. 24:74-80. (2003)]. Negative control group were sensitized with saline. On day 12 mice were sacrificed (24 h after challenge (peritonitis induction)), and the peritoneal cavity was washed with 5 ml of Tyrode buffer (3 mmol/L potassium chloride, 10 mmol/L sodium hydrogen carbonate, 20 mmol/L sodium chloride, 0.36 mmol/L sodium phosphate, 0.1% glucose (all Sigma)) containing 0.1% gelatin (TG buffer). Peritoneal lavage fluid was centrifuged (5 minutes, 150 g), supernatants were saved for cytokine ELISA, and cell pellets were re-suspended in 2 ml of TG buffer for eosinophil quantification. Cells were stained for 30 min. with Phycoerytrin (PE)-labeled anti-CCR3Ab (0.625 μg/ml; R&D systems, Abingdon, UK) and eosinophils were defined as cells expressing the eotaxin receptor CCR3 [Grimaldi et al., J Leukoc Biol. 65:846-53. (1999)] by FACS analysis.\nMice treated with B11 peptide were treated i.p. with 200 μg/mouse 1 hour before sensitizations (Group-S), 1 hour before challenge (Group-C), and 1 hour before both sensitizations and challenge (Group-S+C).\nas §2"}, "LPS-induced symptoms [5]": {"tested_on": "LPS-induced symptoms", "test": "LPS mice model", "format": "in vivo, BALB/c mice", "experimental": "Female BALB/c mice, 6-7 weeks old were injected i.p. with 150 μg LPS (Sigma) per mouse.\nTreatment with peptide was performed four days before LPS injection, (i.p. 200 μg peptide per mouse)."}, "RAW 264.7 cell line": {"tested_on": "RAW 264.7 cell line", "test": "Apoptosis of RAW 264.7 cells", "format": "cell-based, murine"}, "TNBS induced colitis": {"tested_on": "TNBS induced colitis", "test": "TNBS induced colitis", "format": "in vivo, C57BL/6 mice", "experimental": "In Specific pathogen-free male 4 month old C57BL/6 mice lightly anesthetized a 3.5F catheter was carefully inserted into the colon (4 cm proximal to the anus) administering 0.5 mg of the hapten reagent TNBS (Sigma) in 50% ethanol into the lumen of the colon at days 1 and 5. Animals were then kept in a vertical position for […] and returned to their cages. The mice were monitored for weight loss, behavior, appearance and diarrhea for 11 days. On day 11 mice were sacrificed and tested from macroscopic inflammation symptoms in the spleen, liver and colon [Neurath M. et al., J Exp Med. 182:1281-90. (1995)].\nMice treated with B11 peptide were treated i.p. with 200 μg/mouse on days 1 and 5."}, "LPS-induced symptoms [6]": {"tested_on": "LPS-induced symptoms", "test": "LPS mice model", "format": "in vivo, BALB/c mice", "conditions": "B11 post-treatment, LPS 150 μg i.p."}, "[7]": {"tested_on": "RAW 264.7 macrophage cell line", "test": "Cytokine secretion in RAW 264.7 cells (cytokine ELISA)", "format": "cell-based, murine"}, "primary spleen cells": {"tested_on": "primary spleen cells", "test": "Proliferation of primary spleen cells", "format": "cell-based, BALB/c mice"}, "CS40 mAb": {"tested_on": "CS40 mAb", "test": "Direct peptide ELISA with CS40 mAb", "format": "binding"}, "[8]": {"tested_on": "CS40 anti-ManLAM monoclonal antibody", "test": "ELISA competition vs. ManLAM for CS40 mAb", "format": "binding", "conditions": "50 μg/ml of peptide", "experimental": "ELISA competition assay was performed as described [Kaur, D., et al. Microbiology 148:3049-3057 (2002)]. Briefly, plates were coated with 0.5 μg/well ManLAM. Plates were blocked as described above. The CS40 mAb (diluted 1:2000) was mixed with various concentrations of either phage particles in TBS/1% BSA (0-1×10^18 particles/well) or peptides in PBS/1% BSA (0-200 μg/well). […] After washing (PBS), the ELISA procedure was performed as described above. Samples were all tested in triplicate."}, "[9]": {"conditions": "Groups S, C and S+C vs Group OVA, 200 μg i.p."}},
  "note": "Ends that are not written are not given here.",
  "data": [
    {"substance": "FITC-conjugated B11 peptide: B11 peptide conjugated to FITC (ISLTEWSMWYRH; also: FITC conjugated)", "values": [
      {"measurement": "binding to THP-1 in presence of D-mannose", "setting": "[1]; 0.125 M D-mannose", "value": "inhibited by D-mannose"},
      {"measurement": "binding to macrophages in presence of D-mannose", "setting": "[2]; FACS, 0.125 M D-mannose", "value": "inhibited by D-mannose"},
      {"measurement": "binding to RAW 264.7", "setting": "[2]; confocal microscopy and FACS", "value": "bound the macrophage cell line RAW 264.7"}
    ]},
    {"substance": "CISLTEWSMWYRH [B11 peptide with an additional cysteine residue at the amino terminus]", "values": [
      {"measurement": "binding properties to ManLAM-binding antibodies", "setting": "[3]; peptide with extra cysteine at amino terminus", "value": "maintained binding properties"}
    ]},
    {"substance": "ISLTEWSMWYRH (random phage display library) [B11 peptide]", "values": [
      {"measurement": "eosonophil levels in BALF", "setting": "allergic asthma; S i.p., C i.p., S+C i.p. and C i.n. vs OVA mice, 200 μg, FACS", "value": "significantly lower"},
      {"measurement": "IL-12 in BALF", "setting": "allergic asthma; all mice treated i.p.", "value": "significantly lower"},
      {"measurement": "IL-10 in BALF", "setting": "allergic asthma; i.n. before challenge, i.p. both before sensitization and challenge", "value": "significantly lower"},
      {"measurement": "TNF-α in BALF", "setting": "allergic asthma; i.p. and i.n. before challenge", "value": "significantly lower"},
      {"measurement": "IL-4 in BALF", "setting": "allergic asthma; i.p. and i.n. before challenge, i.p. both before sensitization and challenge", "value": "significantly lower"},
      {"measurement": "inflammation in lung histology", "setting": "allergic asthma; treated i.p. before sensitizations or before challenges", "value": "no inflammation was observed"},
      {"measurement": "anti-peptide antibody titers in BCG-vaccinated individuals", "setting": "[4]; BCG-vaccinated vs TB patients", "value": "significantly lower than in TB patients"},
      {"measurement": "titers of antigen-binding antibodies in sera of TB patients", "setting": "[4]; TB patients vs healthy individuals", "value": "Significantly higher titers"},
      {"measurement": "eosonophil levels in peritoneum lavage", "setting": "allergic peritonitis; 200 μg one hour before challenge with OVA", "value": "as in the control group"},
      {"measurement": "IFN-γ levels in peritoneum lavage", "setting": "allergic peritonitis; [9]", "value": "significantly lower"},
      {"measurement": "IL-10 levels in peritoneum lavage", "setting": "allergic peritonitis; [9]", "value": "significantly lower"},
      {"measurement": "IL-12 levels in peritoneum lavage", "setting": "allergic peritonitis; [9]", "value": "significantly lower"},
      {"measurement": "IgG Abs in sera binding the coated antigen", "setting": "[3]", "value": "significantly higher than those of the naive mice"},
      {"measurement": "State after LPS-B11 pre-treatment", "setting": "LPS-induced symptoms [5]; 1 hr post LPS injection", "value": "healthy"},
      {"measurement": "State after LPS-B11 pre-treatment", "setting": "LPS-induced symptoms [5]; 20 hr post LPS injection", "value": "Healthy"},
      {"measurement": "State after LPS-B11 pre-treatment", "setting": "LPS-induced symptoms [5]; 48 hr post LPS injection", "value": "Healthy"},
      {"measurement": "LPS symptoms (appearance, behavior, curing rate)", "setting": "LPS-induced symptoms [5]; pre-treated i.p. 200 μg 4 days before LPS", "value": "milder LPS symptoms"},
      {"measurement": "inhibition of apoptosis", "setting": "RAW 264.7 cell line; LPS-IFN-γ-activated RAW 264.7", "value": 30, "unit": "%"},
      {"measurement": "induction of apoptosis", "setting": "RAW 264.7 cell line; non-activated RAW 264.7", "value": "did not induce apoptosis"},
      {"measurement": "appearance, behavior, diarrhea, weight loss", "setting": "TNBS induced colitis; all 11 days of experiment, all treated mice", "value": "normal appearance and behavior, and no diarrhea or weight loss"},
      {"measurement": "colons normal in color and thickness", "setting": "TNBS induced colitis; day 11", "value": 50, "unit": "%"},
      {"measurement": "colons with lesions", "setting": "TNBS induced colitis; day 11", "value": "None"},
      {"measurement": "macroscopic inflammation symptoms of colon, spleen and liver", "setting": "TNBS induced colitis; day 11", "value": "reduced"},
      {"measurement": "treated mice with spleen and liver normal in size and colorization", "setting": "TNBS induced colitis; day 11", "value": 75, "unit": "%"},
      {"measurement": "colitis symptoms", "setting": "TNBS induced colitis; i.p. 200 μg at days 1 and 5", "value": "reduced the colitis symptoms"},
      {"measurement": "LPS-induced effects", "setting": "LPS-induced symptoms [6]", "value": "successfully reduced the LPS-induced effects"},
      {"measurement": "inhibition of IL-12 secretion", "setting": "[7]; LPS-IFN-γ-activated RAW 264.7", "value": 20, "unit": "%"},
      {"measurement": "production of IL-12", "setting": "[7]; non-activated RAW 264.7", "value": "not induced"},
      {"measurement": "production of IL-6", "setting": "[7]; non-activated RAW 264.7, data not shown", "value": "not induced"},
      {"measurement": "inhibition of proliferation", "setting": "primary spleen cells; spleen cells of Mtb infected mice", "value": "40-50%"},
      {"measurement": "inhibition of proliferation", "setting": "primary spleen cells; spleen cells of adjuvant stimulated mice", "value": "40-50%"},
      {"measurement": "inhibition of proliferation", "setting": "primary spleen cells; spleen cells of naive mice", "value": "40-50%"},
      {"measurement": "binding to CS40 mAb by direct ELISA", "setting": "CS40 mAb", "value": "bound the CS40 mAb"},
      {"measurement": "binding to THP-1", "setting": "[1]", "value": "Binds"},
      {"measurement": "decrease in OD in competitive ELISA", "setting": "[8]", "value": 100, "unit": "%"}
    ]}
  ]
}
